Publication PMC9699638, “Study of Membrane-Immobilized Oxidoreductases in Wastewater Treatment for Micropollutants Removal” (International Journal of Molecular Sciences, 2022)
Counter-ions that a name gives are not always drawn.

What was measured:
[1] = tested on: T1, laccase; conditions: free enzyme; 50 mM acetate buffer pH 5; apparent
T1 construct: gene LCC2

[2] = tested on: T2, horseradish peroxidase (HRP); conditions: free enzyme; 50 mM phosphate buffer pH 7; co-substrate H2O2 (10 mM); apparent
T2 construct: gene PRXC1A

Km [1]: 87 µM | Km [2]: 1330 µM
SMILES: CCn1c(=NN=c2sc3cc(S(=O)(=O)O)ccc3n2CC)sc2cc(S(=O)(=O)O)ccc21 [2,2′-azino-bis(3-ehylbenzothiazoline-6-sulfonic acid), diammonium salt]
